Results published in ChEMBL document CHEMBL4270577, “Synthesis, anticancer activity and molecular modeling studies of 1,2,4-triazole derivatives as EGFR inhibitors” (Eur J Med Chem, 2018).

How the values were obtained:
SF-268 = assay: Growth inhibition of human SF268 cells at 10 uM incubated for 48 hrs by sulforhodamine B assay relative to control; format: functional; details: SF-268, 48 h, read-out: GI
HCC 2998 = assay: Growth inhibition of human HCC2998 cells at 10 uM incubated for 48 hrs by sulforhodamine B assay relative to control; format: functional; details: HCC 2998, 48 h, read-out: GI
MDA-MB-231 = assay: Growth inhibition of human MDA-MB-231/ATCC cells at 10 uM incubated for 48 hrs by sulforhodamine B assay relative to control; format: functional; details: MDA-MB-231, 48 h, read-out: GI
786-0 = assay: Growth inhibition of human 786-0 cells at 10 uM incubated for 48 hrs by sulforhodamine B assay relative to control; format: functional; details: 786-0, 48 h, read-out: GI
PANC-1 = assay: Antiproliferative activity against human PANC1 cells after 48 hrs by propidium iodide staining-based fluorometric analysis; format: functional, cell-based; details: PANC-1, 48 h
HT-29 = assay: Growth inhibition of human HT-29 cells at 10 uM incubated for 48 hrs by sulforhodamine B assay relative to control; format: functional; details: HT-29, 48 h, read-out: GI
RXF 393 = assay: Growth inhibition of human RXF393 cells at 10 uM incubated for 48 hrs by sulforhodamine B assay relative to control; format: functional; details: RXF 393, 48 h, read-out: GI
EKVX = assay: Growth inhibition of human EKVX cells at 10 uM incubated for 48 hrs by sulforhodamine B assay relative to control; format: functional; details: read-out: GI
IGROV-1 = assay: Growth inhibition of human IGROV1 cells at 10 uM incubated for 48 hrs by sulforhodamine B assay relative to control; format: functional; details: IGROV-1, 48 h, read-out: GI
NCI-H322M = assay: Growth inhibition of human NCI-H322M cells at 10 uM incubated for 48 hrs by sulforhodamine B assay relative to control; format: functional; details: read-out: GI
SF-539 = assay: Growth inhibition of human SF539 cells at 10 uM incubated for 48 hrs by sulforhodamine B assay relative to control; format: functional; details: SF-539, 48 h, read-out: GI
MCF7 = assay: Growth inhibition of human MCF7 cells at 10 uM incubated for 48 hrs by sulforhodamine B assay relative to control; format: functional; details: MCF7, 48 h, read-out: GI
NCI-H460 = assay: Growth inhibition of human NCI-H460 cells at 10 uM incubated for 48 hrs by sulforhodamine B assay relative to control; format: functional; details: NCI-H460, 48 h, read-out: GI
U-251 = assay: Growth inhibition of human U251 cells at 10 uM incubated for 48 hrs by sulforhodamine B assay relative to control; format: functional; details: U-251, 48 h, read-out: GI
A549 = assay: Growth inhibition of human A549/ATCC cells at 10 uM incubated for 48 hrs by sulforhodamine B assay relative to control; format: functional; details: A549, 48 h, read-out: GI
SW-620 = assay: Growth inhibition of human SW620 cells at 10 uM incubated for 48 hrs by sulforhodamine B assay relative to control; format: functional; details: SW-620, 48 h, read-out: GI
RPMI-8226 = assay: Growth inhibition of human RPMI8226 cells at 10 uM incubated for 48 hrs by sulforhodamine B assay relative to control; format: functional; details: RPMI-8226, 48 h, read-out: GI
SK-MEL-5 = assay: Growth inhibition of human SK-MEL-5 cells at 10 uM incubated for 48 hrs by sulforhodamine B assay relative to control; format: functional; details: SK-MEL-5, 48 h, read-out: GI
UO-31 = assay: Growth inhibition of human UO31 cells at 10 uM incubated for 48 hrs by sulforhodamine B assay relative to control; format: functional; details: UO-31, 48 h, read-out: GI
SNB-75 = assay: Growth inhibition of human SNB75 cells at 10 uM incubated for 48 hrs by sulforhodamine B assay relative to control; format: functional; details: SNB-75, 48 h, read-out: GI
NCI-H23 = assay: Growth inhibition of human NCI-H23 cells at 10 uM incubated for 48 hrs by sulforhodamine B assay relative to control; format: functional; details: NCI-H23, 48 h, read-out: GI
KM12 = assay: Growth inhibition of human KM12 cells at 10 uM incubated for 48 hrs by sulforhodamine B assay relative to control; format: functional; details: KM12, 48 h, read-out: GI
NCI/ADR-RES = assay: Growth inhibition of human NCI/ADR-RES cells at 10 uM incubated for 48 hrs by sulforhodamine B assay relative to control; format: functional; details: read-out: GI
Malme-3M = assay: Growth inhibition of human MALME-3M cells at 10 uM incubated for 48 hrs by sulforhodamine B assay relative to control; format: functional; details: read-out: GI
NCI-H226 = assay: Growth inhibition of human NCI-H226 cells at 10 uM incubated for 48 hrs by sulforhodamine B assay relative to control; format: functional; details: NCI-H226, 48 h, read-out: GI
ACHN = assay: Growth inhibition of human ACHN cells at 10 uM incubated for 48 hrs by sulforhodamine B assay relative to control; format: functional; details: read-out: GI
HOP-92 = assay: Growth inhibition of human HOP92 cells at 10 uM incubated for 48 hrs by sulforhodamine B assay relative to control; format: functional; details: HOP-92, 48 h, read-out: GI
PC-3 = assay: Growth inhibition of human PC3 cells at 10 uM incubated for 48 hrs by sulforhodamine B assay relative to control; format: functional; details: PC-3, 48 h, read-out: GI
SR = assay: Growth inhibition of human SR cells at 10 uM incubated for 48 hrs by sulforhodamine B assay relative to control; format: functional; details: read-out: GI
M14 = assay: Growth inhibition of human M14 cells at 10 uM incubated for 48 hrs by sulforhodamine B assay relative to control; format: functional; details: M14, 48 h, read-out: GI
HCT-15 = assay: Growth inhibition of human HCT15 cells at 10 uM incubated for 48 hrs by sulforhodamine B assay relative to control; format: functional; details: HCT-15, 48 h, read-out: GI
MDA-MB-435 = assay: Growth inhibition of human MDA-MB-435 cells at 10 uM incubated for 48 hrs by sulforhodamine B assay relative to control; format: functional; details: MDA-MB-435, 48 h, read-out: GI
HOP-62 = assay: Growth inhibition of human HOP62 cells at 10 uM incubated for 48 hrs by sulforhodamine B assay relative to control; format: functional; details: HOP-62, 48 h, read-out: GI
MOLT-4 = assay: Growth inhibition of human MOLT4 cells at 10 uM incubated for 48 hrs by sulforhodamine B assay relative to control; format: functional; details: MOLT-4, 48 h, read-out: GI
[1] = biological target: Epidermal growth factor receptor (Homo sapiens, UniProt P00533); assay: Inhibition of His6-tagged recombinant EGFR cytoplasmic domain (645 to 1186 residues) (unknown origin) expressed in baculovirus infected Sf9 insect cells preincubated for 10 mins followed by ATP-MgCl2 addition and measured after 1 hr by DELFIA/time-resolved fluorometric analysis
Epidermal growth factor receptor, sequence (P00533 whole entry, the tested form may be a part): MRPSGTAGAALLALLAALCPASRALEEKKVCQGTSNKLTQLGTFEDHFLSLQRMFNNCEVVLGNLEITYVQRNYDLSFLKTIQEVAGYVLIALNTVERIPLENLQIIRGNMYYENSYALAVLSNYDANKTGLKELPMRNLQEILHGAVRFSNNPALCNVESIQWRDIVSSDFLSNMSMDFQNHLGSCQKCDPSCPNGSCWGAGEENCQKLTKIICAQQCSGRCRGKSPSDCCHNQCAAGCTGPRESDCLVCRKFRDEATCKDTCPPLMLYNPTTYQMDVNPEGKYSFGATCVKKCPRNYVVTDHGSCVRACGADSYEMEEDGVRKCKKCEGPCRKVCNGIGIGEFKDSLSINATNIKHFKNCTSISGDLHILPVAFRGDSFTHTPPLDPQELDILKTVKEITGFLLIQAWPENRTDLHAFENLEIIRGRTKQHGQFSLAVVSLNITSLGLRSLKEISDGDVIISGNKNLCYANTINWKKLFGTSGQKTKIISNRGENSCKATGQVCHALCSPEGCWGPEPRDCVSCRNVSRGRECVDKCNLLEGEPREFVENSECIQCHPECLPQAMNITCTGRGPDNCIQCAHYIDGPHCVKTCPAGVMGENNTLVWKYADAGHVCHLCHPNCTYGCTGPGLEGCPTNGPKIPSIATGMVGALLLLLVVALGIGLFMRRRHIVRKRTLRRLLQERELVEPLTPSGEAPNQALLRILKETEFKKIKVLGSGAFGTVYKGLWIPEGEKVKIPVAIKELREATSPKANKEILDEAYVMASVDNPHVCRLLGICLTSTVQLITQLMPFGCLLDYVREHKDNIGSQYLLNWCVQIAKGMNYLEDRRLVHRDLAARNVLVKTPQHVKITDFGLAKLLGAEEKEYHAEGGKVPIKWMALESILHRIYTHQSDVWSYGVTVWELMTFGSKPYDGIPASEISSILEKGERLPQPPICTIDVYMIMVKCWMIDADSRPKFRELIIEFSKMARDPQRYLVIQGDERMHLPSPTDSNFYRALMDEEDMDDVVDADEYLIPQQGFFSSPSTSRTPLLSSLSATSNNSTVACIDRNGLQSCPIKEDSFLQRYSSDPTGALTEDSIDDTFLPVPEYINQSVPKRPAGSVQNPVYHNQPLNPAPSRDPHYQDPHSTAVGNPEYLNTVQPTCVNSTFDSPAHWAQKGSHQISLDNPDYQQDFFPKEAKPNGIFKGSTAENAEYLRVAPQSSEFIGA

SMILES	inhibition of growth at 10 µM (SF-268)	inhibition of growth at 10 µM (HCC 2998)	inhibition of growth at 10 µM (MDA-MB-231)	inhibition of growth at 10 µM (786-0)	IC50 (PANC-1)	inhibition of growth at 10 µM (HT-29)	inhibition of growth at 10 µM (RXF 393)	inhibition of growth at 10 µM (EKVX)	inhibition of growth at 10 µM (IGROV-1)	inhibition of growth at 10 µM (NCI-H322M)	inhibition of growth at 10 µM (SF-539)	inhibition of growth at 10 µM (MCF7)	inhibition of growth at 10 µM (NCI-H460)	inhibition of growth at 10 µM (U-251)	inhibition of growth at 10 µM (A549)	inhibition of growth at 10 µM (SW-620)	inhibition of growth at 10 µM (RPMI-8226)	inhibition of growth at 10 µM (SK-MEL-5)	inhibition of growth at 10 µM (UO-31)	inhibition of growth at 10 µM (SNB-75)	other results
COc1ccc(-c2nc3sc(-c4ccc(Cl)cc4)cn3n2)cc1	34.9%	21.4%	86.7%	-75.8%	2.8 µM	82.7%	41%	52.5%	92.9%	82.2%	84.6%	51.1%	-39%	-67.9%	-30%	40.4%	55.1%	27.4%	-7.46%	-1.66%	inhibition of growth at 10 µM (NCI-H23): 41.5%; inhibition of growth at 10 µM (KM12): 45.3%; inhibition of growth at 10 µM (NCI/ADR-RES): 54.4%; inhibition of growth at 10 µM (Malme-3M): 49.2%; inhibition of growth at 10 µM (NCI-H226): 49.9%; inhibition of growth at 10 µM (ACHN): -74%; inhibition of growth at 10 µM (HOP-92): 79.5%; inhibition of growth at 10 µM (PC-3): 41.9%; inhibition of growth at 10 µM (SR): 48.9%; inhibition of growth at 10 µM (M14): 9%; inhibition of growth at 10 µM (HCT-15): 28%; inhibition of growth at 10 µM (MDA-MB-435): 25%; inhibition of growth at 10 µM (HOP-62): 60.4%; inhibition of growth at 10 µM (MOLT-4): 17.4%; IC50 [1]: 1.5 µM
COc1ccc(-c2nc3sc(-c4ccccc4)cn3n2)cc1	28%	22%	53%	11%	4.5 µM	70%	24%	37%	52%	14%	24%	74%	65%	21%	49%	64%	21%	65%	38%	34%	inhibition of growth at 10 µM (NCI-H23): 28%; inhibition of growth at 10 µM (KM12): 70%; inhibition of growth at 10 µM (NCI/ADR-RES): 66%; inhibition of growth at 10 µM (Malme-3M): 32%; inhibition of growth at 10 µM (NCI-H226): 23%; inhibition of growth at 10 µM (ACHN): 32%; inhibition of growth at 10 µM (HOP-92): 32%; inhibition of growth at 10 µM (PC-3): 33%; inhibition of growth at 10 µM (SR): 58%; inhibition of growth at 10 µM (M14): 71%; inhibition of growth at 10 µM (HCT-15): 69%; inhibition of growth at 10 µM (MDA-MB-435): -8.6%; inhibition of growth at 10 µM (HOP-62): 49%; inhibition of growth at 10 µM (MOLT-4): 49%; IC50 [1]: 5.6 µM
